In patent US20220370001A1, “INTESTINAL DIAGNOSTIC SCREENING DEVICE AND METHOD FOR TARGETED GASTROINTESTINAL THERAPY” (AJM MED-I-CAPS LTD, priority 2019, published 2022):

Tests used:
[1] = Fluorescence excitation and emission spectra; type: physicochemical
Description: FIG. 2A is a graph of Near-Infra-Red fluorescence absorbance and emission spectra of CF750 at varying wavelengths, according to an example embodiment of the present disclosure. CF750 has a NIRF peak excitation (solid line) and a peak emission (dotted line) at 760 nm and 780 nm, respectively. Likewise, FIG. 2B is a graph of near-infra-red fluorescence absorbance and emission spectra of IRDye® CW800, according to an example embodiment of the present disclosure. IRDye® CW800 has a peak NIRF excitation and a peak NIRF emission at 774 nm and 789 nm, respectively. FIG. 2C is a graph of absorbance and emission spectra of anticancer drug doxorubicin at varying wavelengths, according to an example embodiment of the present disclosure. Doxorubicin has a peak excitation and a peak emission at 470 nm and 550 nm, respectively.
DSA (3 mg) is mixed with 800 μL of 1:1 dichloromethane and methanol in a glass vial. IRDye® 800CW NHS ester (0.5 mg) was dissolved in methanol (200 μL) then immediately combined with the lipid solution. The mixture is covered to protect it from light and left on a vortex mixer for 2.5 h. The solvent is then reduced in vacuum, dissolved in minimal amount of chloroform and applied to a silica micro-column (˜3 mL) also in chloroform. The unbound fraction is reapplied several times, before elution and washing with the same solvent. Excess DSA and unreacted dye material is retained on the column and the latter is estimated at <10% of the coloured fraction. The unbound product is dried to a film and stored as a solution in 1 mL chloroform.

[2] = reported value for the free dye; cited from earlier work

SMILES	peak emission (Emmax) [1]	peak excitation (Exmax) [1]	Emmax, reported value [2]	Exmax, reported value [2]
COc1cccc2c1C(=O)c1c(O)c3c(c(O)c1C2=O)C[C@@](O)(C(=O)CO)C[C@@H]3O[C@H]1C[C@H](N)[C@H](O)[C@H](C)O1 [Doxorubicin, doxorubicin]	550 nm	470 nm		
CC1(C)C(/C=C/C2=C(Oc3ccc(S(=O)(=O)O)cc3)C(=C/C=C3/N(CCCCS(=O)(=O)O)c4ccc(S(=O)(=O)[O-])cc4C3(C)C)/CCC2)=[N+](CCCCCC(=O)O)c2ccc(S(=O)(=O)O)cc21 [IRDye® CW800]	789 nm	774 nm	789 nm	774 nm
